Source: the METLIN SMRT retention time set (Domingo-Almenara et al. 2019)

Assay: gradient 5% acetonitrile 3 min, to 50% in 2 min, to 85% in 15 min, held 3 min, 100 µL/min
Settings: column: Zorbax Extend-C18 2.1 x 50 mm; eluents: water / acetonitrile, 0.1% formic acid
Procedure, shortened: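 Values are retention times taken from adduct peaks that software picked and an analyst inspected. The pure standards were run as mixtures of ~100 molecules on HPLC linked to a quadrupole time-of-flight mass spectrometer, in positive and negative ionization mode. A Zorbax Extend-C18 column (2.1 × 50 mm, 1.8 μm) was used at 100 μL/min with water and acetonitrile, each including 0.1% formic acid.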

| Structure (SMILES) | RP-LC retention time [s] |
| --- | --- |
| CCCNC(=O)Cn1c(C)nc2ccccc21 | 571 |
| COc1ccc(-c2cc3c4nnc(SCC(=O)Nc5cccc(Br)c5)n4ccn3n2)cc1 | 1320 |
| Cc1cccc(N2CCN(Cc3nc4nc(C)cc(N5CCOCC5)n4n3)CC2)c1 | 636 |
| O=C(NCCN1CCCCC1)C1CCc2sc(C(=O)N3CCCCC3)cc2C1 (stereo not given) | 558 |
| Cc1oc(-c2ccc(NC(=O)CC3CCCC3)cc2)nc1Cn1cccn1 | 896 |
| COc1ccc(-c2noc(C3CCCN3C(=O)c3cc(F)ccc3F)n2)cc1 (stereo not given) | 968 |
| O=C(c1cccs1)N1CCc2cc(-c3csc(C4CC4)n3)ccc21 | 1150 |
| Cc1cccc(NC(=O)CN2CCN(Cc3nc4ccccc4[nH]3)CC2)c1C | 541 |
| Cc1ccc(CNC(=O)C2CCN(c3nnc(C)c4c(C)n(-c5ccccc5)nc34)CC2)o1 | 710 |
| Cc1ccc(NC(=O)C2CCN(S(=O)(=O)c3cc(C(=O)N4CCCCCC4)cs3)CC2)nc1 | 754 |
| O=C(Nc1cc(F)cc(F)c1)N1CCCN(C2CCN(Cc3ccc(F)cc3)C2=O)CC1 (stereo not given) | 688 |
| O=C1CCN(C(=O)C2CCN(C(=O)c3cccs3)CC2)CCCCCCN1 | 639 |
| CC(Cc1ccco1)NC(=O)c1ccc2ccnc(N3CCN(c4ccc(F)cc4)CC3)c2c1 (stereo not given) | 829 |
| COCc1nc2cccnc2n1C1CCN(C(=O)Nc2ccccc2C(=O)OC)CC1 | 784 |
| Fc1ccc(-n2cc(-c3noc(-c4cccc(F)c4)n3)nn2)cc1 | 1050 |
| Oc1ccc(-c2nc3ccccn3c2Nc2ccc3c(c2)OCCO3)cc1 | 596 |
| Cc1ccc(CNC(=O)c2cccc(-c3nc4cccnc4n3C(C)C)c2)o1 | 793 |
| c1ccc(CCc2nnc3sc(-c4ccc5ccccc5n4)nn23)cc1 | 1180 |
| COc1ccc(CCNc2nc(-c3ccccc3)cs2)cc1OC | 830 |
| Cc1nnc(C2CC3(CCN(CC(C)C)CC3)CN2Cc2ccccc2)o1 (stereo not given) | 566 |
| COc1ccc(CNC(=O)c2cn3ccc(C)cc3n2)cc1OC | 604 |
| Cc1ccc(-c2cn3ccccc3n2)cc1NS(=O)(=O)c1ccccc1 | 630 |
| CCCC(=O)Nc1ccc(CCc2nc3ccc(C(=O)NCC(C)C)cc3[nH]2)cc1 | 646 |

| Structure (SMILES) | RP-LC retention time [s] |
| --- | --- |
| O=S(=O)(c1cccnc1)N1CCCCC1c1nncn1CC1CC1 (stereo not given) | 662 |
| CCCN1C(=O)COc2ccc(-c3csc(NC(=O)COC)n3)cc21 | 823 |
| O=C(Nc1ccccc1SCc1nnc(-c2ccccc2)o1)c1ccc(Br)o1 | 1040 |
| CC(C)NC(=O)C1CCN(c2nc3ccc(-c4ccccc4)nc3s2)CC1 | 927 |
| CCCNC(=O)c1c(O)c2cccnc2n(-c2ccc(OC)cc2)c1=O | 1080 |
| O=C(NCCCN1CCOCC1)c1nc2ccccn2c1-c1ccc(F)cc1 | 602 |
| CCc1nnc(-c2ccc3ccn(CC(=O)N4CCN(c5ccc(OC)cc5)CC4)c3c2)o1 | 784 |
| OC(CN1CCCCC1)c1ccc(/C=C/c2ccc(Cl)cc2)cc1 (stereo not given) | 766 |
| CCOC(=O)C1CCN(C(=O)Cc2csc(NC(=O)c3ccco3)n2)CC1 | 649 |
| O=C(Nc1cccn2nc(C3CCC3)nc12)C1CCCO1 (stereo not given) | 774 |
| O=c1c2nnc3c(-c4ccc(F)cc4)cnn3c2ccn1CCc1c[nH]c2ccc(F)cc12 | 950 |
| Cn1nc2n(c1=O)CCN(C(=O)Cc1ccsc1)CC2 | 611 |
| COc1cccc(C2Cn3nnc(-c4nc(-c5ccc(OC)c(F)c5)no4)c3CO2)c1 (stereo not given) | 1140 |
| O=C(NCCN1CCC(Cc2ccccc2)CC1)c1ccc2c(c1)NC(=O)C1CCCCN21 (stereo not given) | 693 |
| CCCCn1cc(S(=O)(=O)N2CCN(c3ccccc3C)CC2)c2cccnc21 | 1280 |
| CCc1ccc(NC(=O)Cn2c(CC)nc3c(c2=O)CN(Cc2ccccc2)CC3)cc1 | 710 |
| Cc1oc2cc(OCC#N)ccc2c(=O)c1-c1ccc(Cl)cc1 | 926 |
| Cc1c(Cl)cccc1NC(=O)C1CCCN(c2nc3c(s2)c(C)nn3-c2cccc(F)c2)C1 (stereo not given) | 1200 |
| O=C(c1ccc2ncccc2c1)N1CCC(c2nc(C3CC3)n[nH]2)CC1 | 491 |
| CCC(C)NC(=O)Cn1cnc2nc(N3CCCC(C(=O)NC(C)C)C3)sc2c1=O (stereo not given) | 643 |
| CCC(C)NC(=O)Cn1c(=O)cc(-c2nc(C(C)C)no2)c2ccccc21 (stereo not given) | 707 |
| O=C(c1ccc(F)cc1)N1CCC(n2nc(-c3ccsc3)ccc2=O)CC1 | 816 |
| CC(C)N1CCN(C(=O)c2csc(C(=O)NC3CCCC3)n2)CC1 | 590 |

| Structure (SMILES) | RP-LC retention time [s] |
| --- | --- |
| Cc1cccc(-c2noc(C3CCCN3C(=O)Nc3ccccc3C)n2)c1 (stereo not given) | 1010 |
| O=C1CCCN1CCCNc1nc(C2CC2)nc2c1CCC2 | 581 |
| CCOc1ccc(S(=O)(=O)N2CCC(C(=O)Nc3ccc(F)c(Cl)c3)CC2)cc1 | 1030 |
| COc1ccc(NC(=O)C2CCN(c3cncnc3N3CCN(C)CC3)CC2)cc1Cl | 585 |
| CCCc1ccc(S(=O)(=O)N2CCC(C(=O)NCc3csc(-c4ccccc4)n3)CC2)cc1 | 1090 |
| CCc1ccc(N2CC(c3noc(-c4ccc(OC)c(OC)c4)n3)CC2=O)cc1 (stereo not given) | 925 |
| COc1ccc(N2CCN(c3nc4c(c(Nc5ccccc5)n3)C(=O)CCC4)CC2)cc1 | 1210 |
| CC(C)CN(CC1CCCO1)C(=O)CN1CC2=C(C1=O)C(c1ccccc1Cl)NC(=O)N2C (stereo not given) | 999 |
| COC(=O)c1c[n+]([O-])ccc1OC | 603 |
| COc1ccc(-c2noc(-c3nn(-c4cccc(OC)c4)ccc3=O)n2)cc1 | 876 |
| COc1ccc(N2CC(c3noc(-c4ccc(C(C)(C)C)cc4)n3)CC2=O)cc1 (stereo not given) | 1200 |
| COc1ccc(-c2noc(C3CC(=O)N(c4ccc(OC)c(Cl)c4)C3)n2)cc1 (stereo not given) | 947 |
| COc1ccc(-c2csc(Nc3ccccc3)n2)cc1 | 1070 |
| CN(C)C1(CC2CC2)CCN(C(=O)c2cccs2)CC1 | 584 |
| O=S(=O)(Nc1ccc(F)cc1)c1ccc(-c2nnc(C3CCC3)o2)o1 | 888 |
| CC(C)NC(=O)C1CCCN(c2nc3ncn(CC(=O)N4CCc5ccccc5C4)c(=O)c3s2)C1 (stereo not given) | 723 |
| CC(=O)N1c2ccc(S(=O)(=O)N3CCCC3)cc2CC1C(=O)NC1CCCCCCC1 (stereo not given) | 907 |
| CCOC(=O)c1c(C)[nH]c(CCC(=O)NCCC(C)C)c1C | 816 |
| COCCOCc1nc(C2CCN(C(=O)NC3CCCCC3)CC2)no1 | 709 |
| CCCN(CC1CCOC1)C(=O)Nc1cccc(Cl)c1C (stereo not given) | 835 |
| Cc1ccc(C)c(C(=O)Nc2cccn3nc(C(C)C)nc23)c1 | 1010 |
| COC(=O)C1=CN(C2CC2)c2cc(N3CCN(c4ccc(OC)cc4)CC3)c(F)cc2S1(=O)=O | 856 |
| CCOC(=O)c1ccc(Nc2nc(C(=O)OCC)nc3ccccc23)cc1 | 896 |

| Structure (SMILES) | RP-LC retention time [s] |
| --- | --- |
| Cc1nn(C(C)C)c(C)c1S(=O)(=O)N1CCN(C(=O)c2ccsc2)CC1 | 775 |
| O=C(NC1CC(=O)N(C2CC2)C1)c1cc2ccccc2[nH]1 (stereo not given) | 638 |
| Fc1cccc(-c2nc(-c3ccc4nncn4c3)no2)c1 | 813 |
| O=C(Nc1ccc(F)cc1Cl)C1CCc2nc(N3CCOCC3)ncc2C1 (stereo not given) | 793 |
| Cc1nn2c(N3CCN(c4ccccn4)CC3)cc(C(C)C)nc2c1-c1ccccc1 | 823 |
| O=C(NC1CCCC1)C1c2cccn2CC(=O)N1Cc1ccc(Cl)cc1 (stereo not given) | 905 |
| COc1ccc(NC(=O)C2CCN(S(=O)(=O)c3ccc4[nH]c(=O)sc4c3)CC2)c(OC)c1 | 774 |
| COc1ccc(-c2nc(C)cc3nn(CC(=O)Nc4cccc(OC)c4)c(=O)n23)cc1 | 800 |
| O=C(NC1CCCCCCC1)C1CCCN(C(=O)c2cc(-c3ccncc3)n[nH]2)C1 (stereo not given) | 646 |
| O=C(Cc1ccccc1)Nc1cccc(C(=O)Nc2ccccc2C(=O)O)c1 | 830 |
| COc1ccc(NC(=O)C2CCCN(c3nc4c(s3)c(C)nn4-c3ccc(OC)cc3)C2)cc1 (stereo not given) | 1080 |
| CCCNC(=O)c1nc2ccccn2c1-c1ccc(F)cc1 | 730 |
| O=C(NCCCN1CCCC1)C1CCN(c2nccnc2Sc2ccccc2)CC1 | 650 |
| CCCN(CC1CCOC1)C(=O)Nc1ccccc1CC (stereo not given) | 823 |
| CCc1noc(NC(C)=O)c1-c1ccc(OC)c(S(=O)(=O)N2CCCCC2)c1 | 758 |
| O=C(c1ccncc1)N1CCC(n2nc(-c3ccsc3)ccc2=O)CC1 | 624 |
| COc1ccc2c(c1)C1(CCN(C(=O)c3ccc(F)cc3)C1)C(=O)N2C (stereo not given) | 759 |
| COc1ncccc1C(=O)Nc1ccc2c(c1)CCC(=O)N2 | 641 |
| Cc1cc2nc(CSc3nnc(-c4ccc(Cl)cc4)o3)cc(=O)n2o1 | 786 |
| CCCOc1cc(N2CCN(S(=O)(=O)CCC)CC2)nc(C)n1 | 606 |
| Cc1c(-c2ccccc2)nc2ccccc2c1C(=O)N1CCN(c2ncccn2)CC1 | 636 |
